“Also recorded” adds a separate entry of the source.
What was measured:
[1] = system: 83 human genes involved in DNA damage signaling responses in Mia-PaCa2 cells; test: qPCR array, DNA damage signaling response genes; format: cell-based; conditions: Mia-PaCa2 cells, data not shown
Protocol: Following compound exposure, cells were washed twice in PBS, harvested by trypsinisation, collected by centrifugation (300 g, 5 min, 4° C.) and re-suspended in RLT buffer (Qiagen). Samples were homogenised using QIAshredder spin columns and stored at −80° C. prior to RNA extraction. Three biological replicates were performed on separate days.
The expression of (i) 83 key human genes involved in telomere replication and maintenance, and (ii) 83 human genes involved in DNA damage signaling responses, was assessed using PCR arrays (SABiosciences). Total RNA was extracted from approximately 1×10^7 Mia-PaCa2 cells treated for 24 h with compound 3d, using the RNeasy kit (Qiagen) with on-column DNaseI treatment to remove residual genomic DNA. The quality of the harvested RNA was confirmed by nanodrop spectroscopy and by analysis with a Human RT^2 RNA QC PCR Array. First-strand cDNA synthesis was performed with the RT^2 first strand kit and qPCR was carried out using the RT^2 qPCR master mix (Qiagen) using 0.5 μg total RNA per array plate in a Stratagene MX-3000P instrument (Agilent, USA). Relative gene expression was determined by the ΔΔCT method using the web-based RT^2 Profiler™ PCR Array Data Analysis software (SABiosciences). Data were normalized to the geometric mean of five housekeeping genes (RPLP10, β-actin, B2M, GAPDH and HPRT1).
Various quadruplex-stabilising agents are known to induce pronounced DNA damage responses. We therefore next assessed the effect of 3d on the transcription of genes associated with DNA damage response and repair pathways. For these pathways the effect of a cytotoxic dosage of 3d (160 nM) on Mia-PaCa2 cells was also tested to assess the correlation between compound-induced DNA damage and cell killing. […] The latter two groups appeared to reflect a dynamic switch in the cellular response from low-level growth inhibition up to 40 nM of 3d to cytostatic then cytotoxic effects at 80 nM and 160 nM respectively.
Instead the response was dominated by genes with roles in growth arrest and more general stress responses.

telomerase = test: TRAP-LIG cellular telomerase activity assay; format: cell-based, human; conditions: at the doses relevant to the IC50 values
Protocol: FIG. 1. Gel showing telomerase activity in MIA-Pa-Ca-2 cells treated with compound 3h after seven days of treatment. Lane 1; untreated cells, lanes 2-4; cells treated increasing concentrations of 3h. Telomerase activity was assessed using the TRAP-LIG assay as described in Materials and Methods. Compound concentrations are indicated. Neg; untreated cells, Pos; positive control. Neg: negative control with telomerase but no ligand.
Telomerase activity was determined using the TRAP-LIG assay, a modified telomere repeat amplification protocol that ensures that there is no carry-over of ligand into the second PCR step of the assay. Briefly, 1 μg of protein from untreated and treated cells were incubated with TS forward primer (0.1 μg of 5′-AAT CCG TCG AGC AGA GTT-3′) at 30° C. for 10 min to allow the initial elongation to take place. Elongated products were purified using the QIAquick nucleotide purification kit (Qiagen) according to the manufacturer's instructions. Eluted samples were freeze-dried and re-dissolved in PCR grade water. Re-dissolved PCR products were subjected to amplification in master mix containing ACX reverse primer (1 μM, 5′-GCG CGG [CTTACC]3 CTA ACC-3′), TS forward primer (0.1 μg), TRAP buffer, BSA (5 μg), 0.5 mM dNTPs, and 2U RedHot TAQ polymerase (ABgene, U.K.) for 35 cycles of 94° C. for 30 s, 61° C. for 1 min, and at 72° C. for 1 min. […]

A549 (lung) cells = test: SRB growth inhibition assay, 96 hr exposure, A549; format: cell-based, human; conditions: Homo sapiens, A549, 96 h exposure
Protocol: (§1) Human cancer cell lines, MCF7 (breast), A549 (lung), Mia-PaCa2, PANC1 and HPAC (pancreatic), RCC4 and 786-0 renal, and the somatic human cell line WI-38 (lung fibroblast) were purchased from ATCC. Cell lines were maintained in appropriate medium supplemented with 10% foetal bovine serum (Invitrogen, UK), 2 mM L-glutamine (Invitrogen, Netherlands), and other components as specified by the suppliers. Cell lines were maintained at 37° C., 5% CO2 and routinely passaged. Drugs were dissolved in DMSO and filtered through 0.22 μm pore-size filter units before addition to cell line appropriate media. Cellular growth inhibition was measured using the sulforhodamine B (SRB) assay in 96 well plates as described previously.^1,2 Fifty percent inhibitory concentrations (IC50) were determined by taking the mean absorbance at 540 nm for each drug concentration expressed as a percentage of the absorbance of untreated control wells.
(§2) The anti-proliferative activity of the group of nine ND derivatives was assessed using the SRB assay following 96 h exposure to 2-fold serial dilutions of each compound (Table 2) in a panel of cancer cell lines together with a normal fibroblast line. […] In contrast the morpholine compounds all show sub-μM anti-proliferative activity in at least some of the cancer cell lines used and the two compounds 3d, 3h with n=3 —(CH2)n— linkers to the morpholine groups, show particularly potent activity in the Mia-PaCa2 and PANC1 pancreatic carcinoma and A549 lung adenocarcinoma cell lines (IC50 values of 10-20 nM).
(§3) Next a series of structural isomers were tested.

[2] = system: MiaPaCa2 (pancreatic) cells; test: SRB growth inhibition assay, MiaPaCa2; format: cell-based, human
Protocol: as §1, §2
Dose-response curves were used to guide the choice of compound concentration and time-points for the array experiments (FIG. 2a). […] To explore this response continuum the transcriptional signature of cells exposed for 24 h to 20 nM, 40 nM, 80 nM concentrations of 3d, or solvent alone as control, was analysed as described in Materials and Methods.
as §3

Panc1 (pancreatic) cells = test: SRB growth inhibition assay, 96 hr exposure, Panc1; format: cell-based, human; conditions: Homo sapiens, PANC-1, 96 h exposure
Protocol: as §1, §2, §3

[3] = system: human telomeric G-quadruplex DNA (F21T); test: FRET melting assay, human telomeric quadruplex; format: binding; conditions: FRET melting
Description: The ability of the naphthalene diimide compounds to stabilize DNA sequences was investigated using a fluorescence resonance energy transfer (FRET) assay modified to be used as a high-throughput screen in a 96-well format. Several quadruplex sequences were studied (the human telomeric G-quadruplex DNA sequence 5′-FAM-d(GGG[TTAGGG]3)-TAMRA-3′ and the duplex sequence 5′-FAM-dTATAGCTATA-HEG-TATAGCTATA-TAMRA-3′ (HEG linker: [(—CH2—CH2—O—)6])), as well as two overlapping sequences from the HSP90 promoter region (HSP90a and HSP90b):
The labelled oligonucleotides have attached to them the donor fluorophore FAM: 6-carboxyfluorescein and the acceptor fluorophore TAMRA: 6-carboxytetramethylrhodamine. The FRET probe sequences were diluted from stock to the correct concentration (400 nM) in a 60 mM potassium cacodylate buffer (pH 7.4) and then annealed by heating to 85° C. for 10 min, followed by cooling to room temperature in the heating block. The compound was stored as a 10 mM stock solution in DMSO; final solutions (at 2×concentration) were prepared using 10 mM HCl in the initial 1:10 dilution, after which 60 mM potassium cacodylate buffer (pH 7.4) was used in all subsequent steps. The maximum HCl concentration in the reaction volume (at a ligand concentration of 20 μM) is thus 200 μM, well within the range of the buffer used. Relevant controls were also performed to check for interference with the assay. 96-Well plates (MJ Research, Waltham, Mass.) were prepared by aliquoting 50 μl of the annealed DNA into each well, followed by 50 μl of the compound solutions. Measurements were made on a DNA Engine Opticon (MJ Research) with excitation at 450-495 nm and detection at 515-545 nm. Fluorescence readings were taken at intervals of 0.5° C. in the range 30-100° C., with a constant temperature being maintained for 30 s prior to each reading to ensure a stable value. Final analysis of the data was carried out using a script written in the program Origin 7.0 (OriginLab Corp., Northampton, Mass.). The advanced curve-fitting function in Origin 7.0 was used for calculation of ΔTm values. All determinations were performed in triplicate or better. Esds in ΔTm are ±0.1° C.
The ability of compounds 3a-h to stabilize a human telomeric quadruplex was assessed by a high-throughput FRET (Fluorescence Resonance Energy Transfer) melting technique. […] None of the furan tetrahydrofuran, pyranose or acyclic ether compounds has any effect on quadruplex or duplex stability.
The T-loop sequence represents duplex DNA.

[4] = system: panel of cancer cell lines; test: SRB assay, panel of cancer cell lines and normal fibroblast line; format: cell-based, human; conditions: Homo sapiens, Fibroblast, 96 h exposure, read-out: IC50 values across the cell line panel
Protocol: as §1, §2

Mia-PaCa2 cells = test: Senescence β-galactosidase staining; format: cell-based, human; conditions: 7 days treatment
Protocol: FIG. 4. Micrographs showing the results of staining for evidence of cellular senescence in MiaPaCa2 cells using the β-galactosidase assay. Senescent cells are coloured blue in this procedure. Staining was performed after seven days treatments with (a) vehicle control, ×100 magnification, (b) 3.3 nM of compound 3d, ×200 magnification, (c) 6.6 nM of compound 3d, ×200 magnification, (d) 50 nM of compound 4, ×200 magnification, (e) plot of the percentage of senescent cells at the indicated concentrations of compounds 3d and 4, compared to the background senescence in this cell line (with vehicle control only). Cell counts were performed in triplicate and error bars represent estimated standard deviations.
Senescence detection and quantification experiments were carried out using the Senescence β-galactosidase staining kit (Cell Signalling Technology, MA, USA) according to the manufacturer's protocol. Briefly, 1×10^5 cells were seeded in 6-well plates in 2 ml of medium supplemented with the test compound and incubated for 24 h. Cells were washed (2 ml PBS), fixed (2% formaldehyde and 2% glutaraldehyde in PBS, 15 min, room temperature) and washed (2×2 ml PBS) before staining overnight. Senescent cells, detected by their blue pigmentation, were counted using a light microscope.
CDKN1A encodes the cyclin-dependent kinase p21WAF1 that induces replicative senescence, which is a well-studied consequence of telomerase inhibition and telomere maintenance disruption. […] Compounds 3b and 3d behaved in a similar manner to each other, with concentrations of 3-4 nM being sufficient to result in ˜50-60% of cells becoming senescent after this time-course.

786-O (renal) cells = test: SRB growth inhibition assay, 96 hr exposure, 786-O; format: cell-based, human; conditions: versus other lines of the panel
Protocol: as §1, §2, §3

## CN1CCN(CCNc2cc3c4c(c(NCCN5CCN(C)CC5)cc5c4c2C(=O)N(CCCN2CCOCC2)C5=O)C(=O)N(CCCN2CCOCC2)C3=O)CC1 [Compound 3h, 4,9-bis((2-(4-methylpiperazin-1-yl)ethyl)amino)-2,7-bis(3-morpholinopropyl)benzo[lmn][3,8]phenanthroline-1,3,6,8(2H,7H)-tetraone]
[1]
  induction of γ-H2AX: do not appear to induce these particular changes
telomerase
  telomerase activity inhibition: not inhibitors of telomerase activity
A549 (lung) cells
  IC50: 10 to 20 nM
[2]
  selectivity for Mia-PaCa2 compared to the normal fibroblast line WI-38: ~200 fold
[2]; Homo sapiens, MIA PaCa-2, SRB assay, 96 h exposure, read-out: IC50 Mia-PaCa2
  IC50: 10 to 20 nM
Panc1 (pancreatic) cells
  IC50: 10 to 20 nM

## COCCCN1C(=O)c2cc(NCCCN3CCN(C)CC3)c3c4c(cc(NCCCN5CCN(C)CC5)c(c24)C1=O)C(=O)N(CCCOC)C3=O [Compound 3e, 2,7-bis(3-methoxypropyl)-4,9-bis((3-(4-methylpiperazin-1-yl)propyl)amino)benzo[lmn][3,8]phenanthroline-1,3,6,8(2H,7H)-tetraone]
[3]
  telomeric quadruplex stabilization (in words): very slight effect; also recorded: low level of quadruplex binding
[4]
  IC50: 1000 to 8000 nM

## CN1CCN(CCCNc2cc3c4c(c(NCCCN5CCN(C)CC5)cc5c4c2C(=O)N(Cc2ccco2)C5=O)C(=O)N(Cc2ccco2)C3=O)CC1 [Compound 3b, 2,7-bis(furan-2-ylmethyl)-4,9-bis((3-(4-methylpiperazin-1-yl)propyl)amino)benzo[lmn][3,8]phenanthroline-1,3,6,8(2H,7H)-tetraone]
[3]
  telomeric quadruplex stabilization (in words): low level of quadruplex binding
[4]
  IC50: 1000 to 8000 nM

## CN1CCN(CCCNc2cc3c4c(c(NCCCN5CCN(C)CC5)cc5c4c2C(=O)N(CCCN2CCN(C)CC2)C5=O)C(=O)N(CCCN2CCN(C)CC2)C3=O)CC1 [Compound 4, reference compound]
Mia-PaCa2 cells
  induction of senescence (in words): strong induction of senescence

## CN1CCN(CCCNc2cc3c4c(c(NCCCN5CCN(C)CC5)cc5c4c2C(=O)N(CC2CCOCC2)C5=O)C(=O)N(CC2CCOCC2)C3=O)CC1 [Compound 3c, 4,9-bis((3-(4-methylpiperazin-1-yl)propyl)amino)-2,7-bis((tetrahydro-2H-pyran-4-yl)methyl)benzo[lmn][3,8]phenanthroline-1,3,6,8(2H,7H)-tetraone]
[3]
  telomeric quadruplex stabilization (in words): low level of quadruplex binding
[4]
  IC50: 1000 to 8000 nM
786-O (renal) cells
  selectivity for the renal carcinoma cell line 786-0: up to 10 fold

From patent US9493460B2, “Diimide compounds” (UCL BUSINESS PLC, priority 2013, dated 2016)
